Tests used:
DHFR = molecular target: T1, DHFR (Homo sapiens, UniProt P00374); assay: Multitargeted bead mixture competition, HeLa cell extract; assay type: binding; conditions: captured protein DHFR; HeLa
T1 sequence (P00374 1-187): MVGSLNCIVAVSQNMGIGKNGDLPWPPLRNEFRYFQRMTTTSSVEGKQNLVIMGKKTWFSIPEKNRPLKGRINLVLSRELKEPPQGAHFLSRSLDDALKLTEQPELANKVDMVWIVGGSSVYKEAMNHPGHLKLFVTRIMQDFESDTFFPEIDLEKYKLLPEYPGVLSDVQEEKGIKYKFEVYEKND

[1] = molecular target: inosine-5′-monophosphate dehydrogenase (Tb927.10.16120) (Trypanosoma brucei brucei, UniProt P50098); assay: Multitargeted bead mixture competition; assay type: binding, T. brucei; conditions: protein TB927.10.16120 INOSINE-5'-MONOPHOSPHATE DEHYDROGENASE; vehicle control = 1
[2] = molecular target: T2, MTHFS, the 5-formyl-THF-cyclo-ligase (Homo sapiens, UniProt P49914); assay: Multitargeted bead mixture competition, HeLa cell extract; assay type: binding; conditions: captured protein MTHFS; HeLa
T2 sequence (P49914 1-203): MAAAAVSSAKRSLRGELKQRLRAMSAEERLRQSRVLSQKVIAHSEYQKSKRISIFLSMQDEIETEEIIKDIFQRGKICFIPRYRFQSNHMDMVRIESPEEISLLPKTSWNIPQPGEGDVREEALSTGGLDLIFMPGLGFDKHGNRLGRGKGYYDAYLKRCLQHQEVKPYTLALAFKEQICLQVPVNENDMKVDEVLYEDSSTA

[3] = molecular target: variant surface glycoprotein 221 (VSM2.TRYBB) (Trypanosoma brucei brucei, UniProt P26332); assay type: binding, T. brucei; conditions: protein VSM2_TRYBB VARIANT SURFACE GL[…] 1.2
DHCH = assay: Multitargeted bead mixture competition; assay type: binding, L. major; conditions: protein LMJF.26.0320 C-1-TETRAH[…], CYTOPLASMIC, PUTATIVE
TB927.8.6460 = assay: Multitargeted bead mixture competition; assay type: binding, T. brucei; conditions: multitargeted bead mixture; free ligand 100 μM; T. brucei lysate; TB927.8.6460
TB11.03.0290 = assay: Multitargeted bead mixture competition; assay type: binding, T. brucei
[4] = molecular target: T. brucei lysate proteins (Trypanosoma brucei brucei, UniProt P38973); assay type: binding; conditions: protein TB427.10.1070 CELL DIVISION PROTEIN KINASE 2 HOMOLOG 1 (CRK1)
methylene-THF-reductase = methylene-THF-reductase (Homo sapiens, UniProt P42898); assay: Multitargeted bead mixture competition, HeLa cell extract; assay type: binding; conditions: captured protein MTHFR; HeLa
DHFR-TS = DHFR-TS (Leishmania major, UniProt P07382); assay: biochemical; conditions: competing free ligand 100 μM; bead = immobilized compound of the row; L. major lysate; read-out: % Inhibition of protein binding to bead, DHFR-TS, L. major
PTR1 = molecular target: T3, PTR1 (Leishmania major, UniProt Q01782); assay: biochemical; conditions: competing free ligand 100 μM; bead = immobilized compound of the row; L. major lysate; read-out: % Inhibition of protein binding to bead, PTR-1, L. major
T3 sequence (Q01782 1-288): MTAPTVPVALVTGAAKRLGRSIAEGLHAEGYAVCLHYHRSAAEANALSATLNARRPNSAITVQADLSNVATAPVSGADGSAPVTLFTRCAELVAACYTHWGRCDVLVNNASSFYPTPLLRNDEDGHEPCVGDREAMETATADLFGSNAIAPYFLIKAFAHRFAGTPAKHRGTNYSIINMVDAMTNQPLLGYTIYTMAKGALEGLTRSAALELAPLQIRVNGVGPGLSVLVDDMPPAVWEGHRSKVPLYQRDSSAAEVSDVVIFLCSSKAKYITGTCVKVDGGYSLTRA

[5] = molecular target: T4, MTHF complex (DHCH protein in humans) (Homo sapiens, UniProt P11586); assay: Multitargeted bead mixture competition, HeLa cell extract; assay type: binding; conditions: HeLa; protein MTHFD1
T4 sequence (P11586 1-935): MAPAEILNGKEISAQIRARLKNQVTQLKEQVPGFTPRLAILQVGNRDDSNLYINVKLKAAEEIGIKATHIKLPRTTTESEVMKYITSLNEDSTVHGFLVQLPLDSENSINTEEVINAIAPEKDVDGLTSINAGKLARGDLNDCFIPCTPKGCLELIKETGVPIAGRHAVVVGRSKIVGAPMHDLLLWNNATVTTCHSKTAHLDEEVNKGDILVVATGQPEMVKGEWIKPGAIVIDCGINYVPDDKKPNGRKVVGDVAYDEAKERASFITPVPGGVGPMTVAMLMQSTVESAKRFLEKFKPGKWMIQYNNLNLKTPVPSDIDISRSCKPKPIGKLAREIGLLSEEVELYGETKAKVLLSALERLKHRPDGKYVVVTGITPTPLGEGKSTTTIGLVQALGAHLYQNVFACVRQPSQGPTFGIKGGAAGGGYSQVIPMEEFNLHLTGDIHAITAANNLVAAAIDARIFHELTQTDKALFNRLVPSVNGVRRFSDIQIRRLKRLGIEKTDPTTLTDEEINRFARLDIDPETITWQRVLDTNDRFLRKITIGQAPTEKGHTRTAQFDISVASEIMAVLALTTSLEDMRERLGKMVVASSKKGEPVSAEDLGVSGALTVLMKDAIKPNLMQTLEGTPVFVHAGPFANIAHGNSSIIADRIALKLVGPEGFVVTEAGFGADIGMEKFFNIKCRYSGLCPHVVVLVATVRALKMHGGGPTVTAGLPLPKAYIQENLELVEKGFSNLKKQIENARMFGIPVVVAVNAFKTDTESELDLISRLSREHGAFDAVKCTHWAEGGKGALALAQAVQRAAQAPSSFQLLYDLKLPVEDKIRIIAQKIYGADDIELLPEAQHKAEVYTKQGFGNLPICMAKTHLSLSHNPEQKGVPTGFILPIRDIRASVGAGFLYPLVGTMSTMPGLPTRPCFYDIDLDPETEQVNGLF

For `Nc1nc2cccc(-c3ccccc3)c2n1Cc1ccc(Cl)c(Cl)c1` [compound 3], the “fold changes relative to vehicle control” value (DHFR) was 1.13, the fold change [1] was 1 and the “fold changes relative to vehicle control” value [2] was 0.96. The “fold change - vehicle control” value [3] was 0.67, the “fold change vs vehicle control” value (DHCH) was 0.96 and the “percentage of competition from bead binding” value (TB927.8.6460) was 15%. The “percentage of competition from bead binding” value (TB11.03.0290; multitargeted bead mixture, free ligand 100 μM, T. brucei lysate, TB11.03.0290) was 10%, the “fold change - vehicle control” value (TB11.03.0290; protein TB11.03.0290 PROTEIN KINASE, PUTATIVE) was 1.06 and the “fold change - vehicle control” value [4] was 0.91. The “fold changes relative to vehicle control” value (methylene-THF-reductase) was 1.06, the inhibition at 100 µM (DHFR-TS) was under 50% and the inhibition at 100 µM (PTR1) was under 50%. For the same molecule, the “fold changes relative to vehicle control” value [5] was 1.01.
